From patent US11535579B2, “Hydrofluoroolefin ethers, compositions, apparatuses and methods for using same” (3M INNOVATIVE PROPERTIES COMPANY, priority 2017, dated 2022)

Columns and labels:
[1] = Kinematic viscosity (AVS 350 Viscosity Timer, glass viscometer); assay type: physicochemical
Description: Kinematic viscosity of PE-1 was measured using a Viscosity Timer available under the trade designation “AVS 350” from SI Analytics, College Station, Tex., USA. For temperatures below 0° C., a temperature control bath available from Lawler Manufacturing Corporation, Edison, N.J., USA was used. The viscometer measurements stand and glass viscometer were immersed in a temperature-controlled liquid bath filled with NOVEC 7500. The Lawler temperature bath was fitted with a copper tubing coil for liquid nitrogen cooling with fine temperature control provided by the bath's electronic temperature control heater. The fluid was mechanically stirred to provide uniform temperature in the bath. The bath controls temperature within 0.1° C., measured by the built-in RTD temperature sensor. The sample liquid was added to the viscometer between the two fill lines etched on the viscometer. The AVS 350 automatically pumped the sample fluid above the upper timing mark then released the fluid followed by measurement of efflux times between the upper and lower timing marks. The fluid meniscus was detected by optical sensors as it passed each timing mark. The sample was drawn up and measured repeatedly, averaging multiple measurements.
The glass viscometers were calibrated using certified kinematic viscosity standard fluids available from Cannon Instrument Company, State College, Pa., USA to obtain a calibration constant (centistokes per second) for each viscometer.
The measured kinematic viscosity (centistokes) which is the average efflux time (seconds)×constant (centistokes/second) is presented in Table 3. The data summarized in Table 3 indicates a favorable low temperature liquid range, which renders these materials useful in heat transfer applications.

[2] = Thermal stability: stirred 24 h with or without adsorbent, purity by GC-FID; assay type: physicochemical
Description: The samples were stirred for 24 h at the temperatures indicated in Table 4 and then analyzed for purity by GC-FID.

## FC(F)(F)C(F)(F)C(F)(F)OC/C=C/COC(F)(F)C(F)(F)C(F)(F)F [PE-1, (E)-1,4-bis(perfluoropropoxy)but-2-ene]
[1]; 0.0 °C
  Kinematic Viscosity: 3.16 cSt
[1]; −10.0 °C
  Kinematic Viscosity: 4.28 cSt
[1]; −30.0 °C
  Kinematic Viscosity: 10.24 cSt
[1]; −40.0 °C
  Kinematic Viscosity: 17.44 cSt
[1]; −50.0 °C
  Kinematic Viscosity: 28.23 cSt
[1]; −60.0 °C
  Kinematic Viscosity: 59.59 cSt
[2]; 4 Angstrom Molecular Sieves 100 mg, 60 °C
  Purity (thermal stability): 91.9%
[2]; Activated Carbon 100 mg, 60 °C
  Purity (thermal stability): 91.8%
[2]; Basic Alumina 100 mg, 60 °C
  Purity (thermal stability): 92.0%
[2]; K2CO3 100 mg, 60 °C
  Purity (thermal stability): 91.6%
[2]; No Adsorbent, 25 °C
  Purity (thermal stability): 91.7%
[2]; No Adsorbent, 60 °C
  Purity (thermal stability): 91.7%
[2]; Silica Gel 100 mg, 60 °C
  Purity (thermal stability): 91.7%
